Assay results from PMC3326523, “Histone Recognition and Large-Scale Structural Analysis of the Human Bromodomain Family” (Cell, 2012).
Read-outs that look alike come from different tables or passages of the source. Where no end group is shown, it is not given here.

Assays:
[1] = biological target: T1, CREBBP (Homo sapiens, UniProt Q92793); assay: Isothermal titration calorimetry (ITC) of histone peptides; assay type: binding
T1 construct: His6 tag with TEV cleavage site (N, cleaved yes); made in house; host or cells: E. coli BL21(DE3)-R3
T1 sequence (Q92793 with tags, fused parts or gaps): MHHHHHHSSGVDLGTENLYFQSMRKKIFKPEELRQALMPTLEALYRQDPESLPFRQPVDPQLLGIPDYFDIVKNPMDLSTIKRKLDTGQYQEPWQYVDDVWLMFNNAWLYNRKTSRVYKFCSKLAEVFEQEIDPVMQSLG

[2] = system: 33 representative BRDs; assay: SPOT peptide array of singly acetylated histone peptides; assay type: binding, human; conditions: His6-tagged BRDs 1 μM; in words
Description: Peptides were synthesized on cellulose membranes using a MultiPep SPOT peptide arrayer (Intavis). His6-tagged BRDs were added to a final concentration of 1 μM, and blots were developed using an ECL kit (Thermo Scientific) following the manufacturer's protocol.
Three different types of SPOT membrane were utilized in order to probe preferences of BRD recognition sites: the first array contained peptides from all four core histones (H2A, H2B, H3 and H4) covering all possible lysine acetylation sites, with peptide sizes ranging from 10 to 14 amino acids. […]
Peptides for the first two arrays were synthesized directly on cellulose membranes (Intavis) using a MultiPep SPOT peptide arrayer (Intavis) and commercially available standard (Intavis) or modified (Bachem) L-amino acid precursors as previously described ([Nady et al., 2008]). The quality of the synthesized array was evaluated as follows: i) immune reactive peptides were identified by incubation of the membrane with an anti-His antibody in the absence of any His6-tagged BRD. […]
Each membrane was washed 3 times in PBST, blocked for 1 hr with 10% milk in PBST, and washed again 3 × 5 min with PBST. […] Chem-illuminescence was detected with an Image reader (Fujifilm LAS-4000 ver.2.0) with an incremental exposure time of 5 min for a total of 80 min. […]

| Compound | interaction with BRDs in SPOT array of singly acetylated peptides [2] | also measured |
| --- | --- | --- |
| CC(=O)NCCCC[C@H](NC(=O)CNC(=O)CNC(=O)[C@@H](NC(=O)[C@H](CO)NC(=O)[C@@H](N)CCCCN)[C@@H](C)O)C(=O)N[C@@H](C)C(=O)N1CCC[C@H]1C(=O)N[C@@H](CCCNC(=N)N)C(=O)N[C@@H](CCCCN)C(=O)N[C@@H](CCC(N)=O)C(=O)N[C@@H](Cc1ccc(O)cc1)C(=O)O [H3K14ac] | – | Kd [1]: 733 µM |
| CC(=O)NCCCC[C@H](NC(=O)CNC(=O)CNC(=O)[C@@H](NC(=O)[C@H](COP(=O)(O)O)NC(=O)[C@@H](N)CCCCN)[C@@H](C)O)C(=O)N[C@@H](C)C(=O)N1CCC[C@H]1C(=O)N[C@@H](CCCNC(=N)N)C(=O)N[C@@H](CCCCNC(C)=O)C(=O)N[C@@H](CCC(N)=O)C(=O)N[C@@H](Cc1ccc(O)cc1)C(=O)O [H3pS10K14acK18ac] | – | Kd ([1]; ITC, 10 or 15°C, 50 mM HEPES pH 7.5, 150 mM NaCl, read-out: KD of CREBBP): 131 µM |
| H2AK36: promiscuous H2AK36-containing array peptide (LLRK(Ac)GNYSERVGA) | interacted with most BRDs | – |
| H2BK85: promiscuous H2BK85-containing array peptide (AHYNK(Ac)RSTITSRE) | interacted with most BRDs | – |
